These results are taken from patent US20170008888A1 (KYORIN PHARMACEUTICAL CO., LTD., priority 2014, published 2017).

For one assay, the system named is MV-4-11 cells. As to the kind of experiment: MV-4-11 proliferation EC50 assay (CellTiter-Glo). Particulars: Homo sapiens, MV4-11, 48 h, read-out: MV-4-11 proliferation EC50, ave. ± S.D. Type of assay: cell-based. The method, then: Human biphenotypic B myelomonocytic leukemia MV-4-11 cells (ATCC, Manassas, Va.) were treated with test compounds at 2e5 cells/ml in IMDM medium containing 10% (v/v) FBS (Life Technologies, Grand Island, N.Y.) and 1×Pen/Strep Amphotericin B (Lonza, Allendale, N.J.). Compounds were tested at 25 μM down by ⅓ in a 9 point serial dilution series. Cells were incubated for 48 h at 37° C. in a humidified atmosphere at 5% CO2. MV-4-11 cell proliferation was then indirectly determined via cellular ATP content using the CellTiter-Glo® Luminescent Cell Viability Assay (Promega, Madison, Wis.) as per the manufacturer's instructions. Briefly, experimental plates were equilibrated at room temperature for 30 minutes. An equal volume of CellTiter-Glo® reagent was added to each well and incubated for 15 minutes at room temperature. Luminescent signal was read using the Wallac 1420 Victor^2 multilabel microplate reader (Perkin Elmer, Waltham, Mass.). EC50 values were determined using GraphPad Prism software v5.04.
Background: ATP-based viability assays read luminescence as a measure of living cells.

Assay [1] relates to DNFB-induced ear inflammation mouse model. Briefly: DNFB-induced ear inflammation (contact hypersensitivity) mouse model: ear weight. The format is in vivo, mouse (Balb/c). The note with it: 3 mg/kg PO, QD on Day 5 (elicitation). The protocol: (§1) In vivo T-cell mediated immune response was examined in a mouse model of CHS using the hapten dinitrofluorobenzene (DNFB) as the induction agent. Method for sensitization and elicitation of DNFB-induced CHS was modified from Xu et al. J. Exp. Med. 1996. 183:1001-1012. On Days 0 and 1 (sensitization), 20 μL of 0.5% v/v DNFB in acetone:olive oil (4:1) was applied to each hindpaw of 8 week old male mice (Balb/c, Charles River Laboratories; 10 mice per group unless otherwise noted). On Day 5 (elicitation) 10 μL of 0.2% v/v DNFB in acetone: olive oil (4:1) was applied to the dorsal surface of the right ear of each animal; 10 μL of acetone: olive oil (4:1) was applied to the dorsal surface of the left ear as control. Treatments were administered by group as indicated in the table below; on days when DNFB was used, the QD and the morning dose of BID as appropriate were administered 30 minutes-1 hr. prior to DNFB application. […] Approximately 24 hours after elicitation (Day 6), a 7 mm tissue punch from the central portion of both ears was collected and wet weights measured. The primary functional assessment was the difference in wet weights of the right (DNFB) vs. left (vehicle) ears compared to the vehicle treatment (Vehicle1-S) as an indicator of inflammation (Table 17). Ear tissue punches were flash frozen, stored at −70° C. and analyzed for cytokines (see below). Body weights of the mice were measured at baseline and at end of study, and there were no significant changes in weight in any treatment group during the study (data not shown).

Assay [2] shares this test system. Briefly: DNFB-induced ear inflammation mouse model: cytokine concentrations in ear tissue. Type of assay: in vivo, mouse (Balb/c). Particulars: Dex 3 mg/kg PO, regimen E. The method, then:
as §1, with “Method for sensitization and elicitation of DNFB-induced CHS was modified from Xu et al. J. Exp. Med. 1996. 183:1001-1012.” left out, “below).” for “below). Body weights of the mice were measured at baseline and at end of study, and there were no significant changes in weight in any treatment group during the study (data not shown).”
Cytokine concentrations after DNFB induction and treatment were analyzed in the weighed and flash frozen tissues of the right (DNFB) and left (control) 7 mm ear punches. The ear tissues were stored at −70° C. until prepared for analysis as follows. Left or right ear tissues from the same treatment group were pooled and crushed with mortar and pestle under liquid nitrogen. Tissue representing 7-8 ear punches by weight was homogenized in Buffer A (50 mM HEPES pH 7.4, 100 mM NaCl) containing 1 tablet EDTA-free Protease Inhibitor (Thermo Fisher Scientific, Rockford, Ill.) per 10 mL, 1× Phosphatase Inhibitor Cocktail II (AG Scientific, San Diego, Calif.), and 1 mM PMSF (Sigma, St. Louis, Mo.). Homogenization was performed in Lysing Matrix D tubes (MP Biomedicals, Solon, Ohio), using the FastPrep-24 instrument (MP Biomedicals) at a speed setting of 6 for 4 cycles of 30 seconds, with cooling on ice in between cycles. The tubes were then centrifuged at 1,000×g for 10 min at 4° C. Supernatant was collected and briefly sonicated using the Microson probe sonicator at setting 3 (Misonix, Farmingdale, N.Y.) before centrifuging again at 10,000×g for 10 min at 4° C. The supernatant was ultracentrifuged at 100,000×g for 1 h at 4° C. in the Optima Max-E (Beckman Coulter, Indianapolis, Ind.) to separate soluble and membrane protein fractions. The soluble (supernatant) fraction was collected and protein concentrations determined using the Dc protein kit (Bio-Rad, Hercules, Calif.). Soluble ear proteins were analyzed in triplicate for cytokine response at a final protein concentration of 4 mg/ml using the Bio-Plex Pro Mouse Cytokine 23-Plex panel (Bio-Rad) as per manufacturer's protocols. Magnetic beads were read on the Bio-Plex MAGPIX multiplex reader instrument using the accompanying xPONENT 4.2 acquisition software (Bio-Rad Laboratories, Hercules, Calif.). Data were analyzed via the Bio-Plex Manager software v6.1 (Bio-Rad Laboratories). Response was calculated as a percentage of the cytokine concentrations measured in the right (DNFB) ears of vehicle 1 dosed (S regimen, i.e. dosed Day 0-5) mice (Table 18).

In assay [3] the test system is Imiquimod-induced psoriasis mouse model. Briefly: Imiquimod (IMQ)-induced acute model of psoriasis in mouse: skin thickness, erythema, scaling. Type of assay: in vivo, mouse (Balb/c). The method, then:
Material and methods for the IMQ study were adapted from van der Fits et al. J Immunol., 2009, 182: 5836-5845. Eight week old male Balb/c mice (Harlan) received a daily topical dose of 62.5 mg 5% IMQ cream (Aldara™, Medicis) equivalent to 3.125 mg IMQ, on the shaved back (approximately 2×3.5 cm patch) and dorsal surface of the right ear for 6 consecutive days. Sham control mice were treated similarly with control cream (Hydrous Emulsified Base, HEB, Cream, Fagron). Treatments were administered by group as indicated in Table 1 below prior to daily application of IMQ (QD and morning dose of BID regimens), n=10 for all groups. […] Body weights and scoring of induced clinical disease were performed after dosing (Days 1-7) but prior to IMQ application (Days 1-6) on Days 1 (baseline), 3, 4, 6, 8. Mice were sacrificed on Day 8 and treated back skin tissue collected and divided for fixation for histopathology (a 12 mm punch in mid-back) the remainder flash frozen; right (IMQ) and left (control) ears, spleen (after wet weight) and lung were also individually collected and flash frozen, and stored at −70° C. for subsequent biochemical analyses. Statistics were performed using one-way ANOVA with Dunnett's post-hoc test comparing treated groups to the vehicle group, using InStat software (GraphPad, La Jolla, Calif.).
The severity of clinical disease was assessed by
1) skin thickness dial gauge micrometer measurements (duplicate) of the ears and the dorsal skin at the midline of the back (equal to double true measure of dorsal skin thickness)
2) erythema and scaling, independently scored on a scale from 0-4: 0=none, 1=slight, 2=moderate, 3=marked, 4=very marked with intermediate increments of 0.5 allowed.
Clinical disease assessments included erythema, scaling, skin thickness and cumulative disease severity scores and the change in skin thickness of the ears and dorsal back skin over time compared to baseline measurements (Tables 19 and 20). Body weights of the mice were measured at baseline and at end of study, and there were no significant changes in weight in any treatment group during the study (data not shown).

The mark [4] stands for this setting: Day 1 (baseline), Dexamethasone 3 mg/kg PO.
Setting [5] is: Day 3, Dexamethasone 3 mg/kg PO.
Where [6] appears, read: Day 4, Dexamethasone 3 mg/kg PO.
The mark [7] stands for this setting: Day 6, Dexamethasone 3 mg/kg PO.
Setting [8] is: Day 8, Dexamethasone 3 mg/kg PO.

Marks after values point to notes of the source that are not given here.

On to `CN1C(=O)c2ccccc2N(C)c2nc(Nc3ccc(N4CCC(O)CC4)cn3)ncc21` [Compound IV-5 in WO 2010/080712], for which the EC50 in the assay with MV-4-11 cells came to 1120 nM.
With `C[C@@H]1C[C@H]2[C@@H]3CCC4=CC(=O)C=C[C@]4(C)[C@@]3(F)[C@@H](O)C[C@]2(C)[C@@]1(O)C(=O)CO` [Dexamethasone, reference compound], the “% Reduction Weight Increase Vs. Vehicle 1 Weight Increase” value in assay [1] is −60.0%. In assay [2], the “IFN-γ: Mean % Cytokine Concentration in DNFB Treated Right Ears versus Vehicle 1-Dosed (S) Mice” value worked out at 74%, the “IL-1α: Mean % Cytokine Concentration in DNFB Treated Right Ears versus Vehicle 1-Dosed (S) Mice” value worked out at 189%, the “IL-1β: Mean % Cytokine Concentration in DNFB Treated Right Ears versus Vehicle 1-Dosed (S) Mice” value is 53% and the “IL-3: Mean % Cytokine Concentration in DNFB Treated Right Ears versus Vehicle 1-Dosed (S) Mice” value came out at 76%. Besides, in assay [2], the “IL-5: Mean % Cytokine Concentration in DNFB Treated Right Ears versus Vehicle 1-Dosed (S) Mice” value worked out at 58%, the “IL-6: Mean % Cytokine Concentration in DNFB Treated Right Ears versus Vehicle 1-Dosed (S) Mice” value was found to be 36%, the “IL-12 (p40): Mean % Cytokine Concentration in DNFB Treated Right Ears versus Vehicle 1-Dosed (S) Mice” value amounted to 59% and the “IL-13: Mean % Cytokine Concentration in DNFB Treated Right Ears versus Vehicle 1-Dosed (S) Mice” value is recorded as 81%. Further, in assay [2], the “IL-17A: Mean % Cytokine Concentration in DNFB Treated Right Ears versus Vehicle 1-Dosed (S) Mice” value was found to be 63%, the “KC: Mean % Cytokine Concentration in DNFB Treated Right Ears versus Vehicle 1-Dosed (S) Mice” value was found to be 29%, the “MCP-1: Mean % Cytokine Concentration in DNFB Treated Right Ears versus Vehicle 1-Dosed (S) Mice” value came out at 41% and the “MIP-1α: Mean % Cytokine Concentration in DNFB Treated Right Ears versus Vehicle 1-Dosed (S) Mice” value worked out at 53%. Moreover, in assay [2], the “MIP-1β: Mean % Cytokine Concentration in DNFB Treated Right Ears versus Vehicle 1-Dosed (S) Mice” value is on record as 39%, the “RANTES: Mean % Cytokine Concentration in DNFB Treated Right Ears versus Vehicle 1-Dosed (S) Mice” value is 42% and the “TNF-α: Mean % Cytokine Concentration in DNFB Treated Right Ears versus Vehicle 1-Dosed (S) Mice” value amounted to 74%. In addition, in assay [3] (setting [4]), the “Clinical Score Erythema (0-4), AVG Score” value is given as 0 and the “Clinical Score Scaling (0-4), AVG Score” value is on record as 0. For the same molecule, in assay [3] (setting [5]), the “% Mean DORSAL BACK THICKNESS versus day 1, AVG” value was determined as 3.08%; the “% Mean LEFT EAR THICKNESS [Control] versus day 1, AVG” value (“% Mean LEFT EAR THICKNESS” below) is −9.64%; the “% Mean RIGHT EAR THICKNESS [IMQ] versus day 1, AVG” value (“% Mean RIGHT EAR THICKNESS” below) was −5.32%; the “Clinical Score Erythema (0-4), AVG Score” value came out at 0.05. The “Clinical Score Scaling (0-4), AVG Score” value in assay [3] (setting [5]) is on record as 0. Moreover, in assay [3] (setting [6]), the “% Mean DORSAL BACK THICKNESS versus day 1, AVG” value worked out at 13.71%; the “% Mean LEFT EAR THICKNESS” value is listed as −10.38%; the “% Mean RIGHT EAR THICKNESS” value is reported as −2.08%; the “Clinical Score Erythema (0-4), AVG Score” value turned out to be 0.65. Further, in assay [3] (setting [6]), the “Clinical Score Scaling (0-4), AVG Score” value came to 0.2. In assay [3] (setting [7]), the “% Mean DORSAL BACK THICKNESS versus day 1, AVG” value is 13.04** %; the “% Mean LEFT EAR THICKNESS” value was −9.61%; the “% Mean RIGHT EAR THICKNESS” value is listed as 10.54** %; the “Clinical Score Erythema (0-4), AVG Score” value is reported as 0.45. Also, the “Clinical Score Scaling (0-4), AVG Score” value in assay [3] (setting [7]) worked out at 0.5. Moreover, in assay [3] (setting [8]), the “% Mean DORSAL BACK THICKNESS versus day 1, AVG” value is listed as 14.32** %; the “% Mean LEFT EAR THICKNESS” value is −14.05%; the “% Mean RIGHT EAR THICKNESS” value is reported as 10.40** %; the “Clinical Score Erythema (0-4), AVG Score” value turned out to be 0.45. In assay [3] (setting [8]), the “Clinical Score Scaling (0-4), AVG Score” value was found to be 0.35.
